Reference: US6939554B2, “Antimicrobial polymer” (Michigan Biotechnology Institute, priority 2002, dated 2005)

Test system: potential human pathogenic microorganisms
Assay: Antimicrobial activity assay, overall assessment across target microorganisms
Format: cell-based
Conditions: among the seven antimicrobials tested, in the polymer coatings
Protocol: The selection of target microorganisms for examining the antimicrobial activity of the coated polydimethylsiloxane substrates produced in the Control Example and Examples 1-16 was based on the potential human pathogenic microorganisms, which include gram positive bacteria, Bacillus subtilis and Staphylococcus aureus; gram negative bacteria, E. coli and Pseudomonas aeruginosa; and yeast, Candida albicans. Broth cultures were prepared for each microorganism. Bacteria, Bacillus subtilis, Staphylococcus aureus, E. coli and Pseudomonas aeruginosa were grown in 50 milliliters of sterile tryptic soy broth in a 500 milliliter baffle flask at 200 rpm. The cultures were grown at 37° C. overnight, and used for antimicrobial activity assay plates and stock culture. The yeast, Candida albicans was cultivated in 50 milliliters of sterile yeast malt broth in a 250 milliliter baffle flask at 25-28° C. for 1 day and used for the activity assay plates and stock culture.
Antimicrobial activity assay plates were then prepared. Yeast malt agar and tryptic soy agar were autoclaved for 20 minutes. The sterile molten agar was allowed to cool to 42-45° C. The prepared broth cultures of the target microorganisms were inoculated to a final concentration of 5% (v/v). […]

SMILES: [H]/N=C(\N/C(=N/[H])NCCCCCCNC(=N)NC(=N)Nc1ccc(Cl)cc1)Nc1ccc(Cl)cc1 [chlorhexidine, 1,6-bi(N^5-p-chlorophenyl-N^1-biguanido)hexane]
- Antimicrobial activity: ability to suppress the colonization and spectrum of action (in words): high activity
